Patent publication US20260201008A1, “SECRETIN-DERIVED GLP1R SELECTIVE AGONISTS” (GUBRA A/S, priority 2023, published 2026)
Where two headings read alike, the source gives them in different places. Numbered stars: 1 amine (or outer) side, 2 acyl side, 3 side chain; on linkers, the order of the positions; unused ones are H or OH. Square brackets hold non-standard residues; d marks the D form. Side chains are listed from the residue outwards. Peptide text beside a SMILES is read from it. * marks the point of attachment. C20 diacid = O=C(O)CCCCCCCCCCCCCCCCCCC(=O)*; γGlu = O=C(O)[C@H](CCC(=O)[*:2])N[*:1]; AEEA = NCCOCCOCC(=O)O; Aib = CC(C)(N)C(=O)O

Tests used:
[1] = Turbidity of crude library peptides (absorbance at 600 nm); format: physicochemical; settings: Physical stability of peptides
Outline: (§1)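 Crude peptides at 267 μM in 50 mM sodium acetate pH 4.0 or 50 mM sodium phosphate pH 7.0, pre-incubated 1-2 h at room temperature, then 4 μM final ThT added. Turbidity read first as A600. ThT fluorescence (ex 450/em 480 nm) read every 10 min for 72 h at 40° C, with 5 min shaking before each read; fibril formation = average emission.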

[2] = Fibril formation of crude library peptides (Thioflavin T); format: physicochemical; set-up: key: average ThT fluorescence emission at 480 nm (ex 450 nm), raw units; settings: Physical stability of peptides
Outline: as §1

GLP1R = GLP1R (Homo sapiens, UniProt P43220); experiment: hGLP1R potency, cAMP accumulation in CHO-K1 cells stably overexpressing hGLP1R; format: cell-based; set-up: host or cells: CHO-K1; settings: for Selectivity: SCTR EC50/GLP1R EC50 ratio; for EC50: cAMP accumulation, CHO-K1 cells overexpressing hGLP1R
GLP1R, sequence (P43220 24-463): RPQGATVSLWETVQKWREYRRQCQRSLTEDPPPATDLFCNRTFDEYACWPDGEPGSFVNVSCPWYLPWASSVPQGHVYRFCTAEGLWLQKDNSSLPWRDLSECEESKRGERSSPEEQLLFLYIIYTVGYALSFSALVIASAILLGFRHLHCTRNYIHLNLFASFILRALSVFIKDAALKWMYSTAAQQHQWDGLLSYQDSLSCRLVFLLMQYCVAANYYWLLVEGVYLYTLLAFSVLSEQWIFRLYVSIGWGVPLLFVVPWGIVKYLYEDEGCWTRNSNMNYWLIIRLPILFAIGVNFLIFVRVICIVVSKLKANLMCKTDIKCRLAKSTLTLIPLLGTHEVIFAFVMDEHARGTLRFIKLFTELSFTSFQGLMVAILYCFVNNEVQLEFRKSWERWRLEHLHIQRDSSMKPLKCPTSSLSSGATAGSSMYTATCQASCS
Outline: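 CHO-K1 cells stably expressing hGLP1R (2000/well) in DPBS with 0.05% casein and 0.5 mM IBMX were stimulated 30 min at room temperature with graded compound doses; human GLP-1(7-36) served as positive control. cAMP was read by HTRF after 1 h; EC50 came from variable-slope sigmoid fits (purified peptides: 11-point 3-fold, n=2).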

SCTR = SCTR (Homo sapiens, UniProt P47872); experiment: hSCTR potency, cAMP accumulation in CHO-K1 cells stably overexpressing hSCTR; format: cell-based; set-up: alternatively Euroscreen ES-712-AF; FAST-0161L; host or cells: CHO-K1; settings: cAMP accumulation, CHO-K1 cells overexpressing hSCTR
SCTR, sequence (P47872 23-440): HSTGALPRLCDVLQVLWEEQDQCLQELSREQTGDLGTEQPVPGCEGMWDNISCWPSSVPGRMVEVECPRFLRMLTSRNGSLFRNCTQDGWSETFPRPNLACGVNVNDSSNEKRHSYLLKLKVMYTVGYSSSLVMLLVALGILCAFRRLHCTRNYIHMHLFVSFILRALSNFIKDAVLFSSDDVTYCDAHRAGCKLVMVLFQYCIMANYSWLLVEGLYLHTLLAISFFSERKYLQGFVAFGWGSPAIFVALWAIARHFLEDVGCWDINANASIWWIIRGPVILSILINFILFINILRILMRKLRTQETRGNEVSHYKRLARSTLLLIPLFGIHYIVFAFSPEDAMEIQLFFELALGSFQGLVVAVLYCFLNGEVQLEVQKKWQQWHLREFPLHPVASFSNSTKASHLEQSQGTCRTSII
Outline: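 Cells plated at 2000/well in DPBS with 0.05% casein and 0.5 mM IBMX, stimulated 30 min at room temperature with graded compound doses; human secretin as positive control. cAMP read by TR-FRET after 1 h. Purified peptides tested at 11 3-fold dilutions, n=2; EC50 by variable-slope sigmoid fit.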

[3] = read-out: pEC50 hGLPR1 (converted)
[4] = read-out: pEC50 hSCTR (converted)

Compound | Turbidity (pH 7) [1] | Fibril formation [2] | Selectivity (GLP1R) | EC50 (GLP1R; [3]) [nM] | EC50 (SCTR; [4]) [nM] | EC50 (GLP1R; read-out: hGLP1R pEC50 (converted)) [nM] | SCTR EC50/GLP1R EC50 ratio (GLP1R; selectivity for hGLP1R over hSCTR, cAMP accumulation in CHO-K1 cells) | EC50 (SCTR; read-out: hSCTR pEC50 (converted)) [nM]
CC(C)C[C@H](NC(=O)[C@H](CCC(=O)O)NC(=O)[C@H](CCCCNC(=O)COCCOCCNC(=O)COCCOCCNC(=O)CC[C@H](NC(=O)CCCCCCCCCCCCCCCCCCC(=O)O)C(=O)O)NC(=O)[C@H](CC(C)C)NC(=O)[C@H](CCC(=O)O)NC(=O)[C@H](CO)NC(=O)[C@@H](NC(=O)[C@H](CC(=O)O)NC(=O)[C@H](CO)NC(=O)[C@@H](NC(=O)[C@H](Cc1ccccc1)NC(=O)[C@@H](NC(=O)CNC(=O)[C@H](CCC(=O)O)NC(=O)C(C)(C)NC(=O)[C@@H](N)Cc1c[nH]cn1)[C@@H](C)O)[C@@H](C)O)C(C)C)C(=O)N[C@@H](C)C(=O)N[C@@H](C)C(=O)N[C@@H](CO)C(=O)N[C@@H](CCC(N)=O)C(=O)N[C@@H](CCCNC(=N)N)C(=O)N[C@@H](Cc1ccccc1)C(=O)N[C@@H](CC(C)C)C(=O)N[C@@H](CCC(=O)O)C(=O)N[C@@H](Cc1c[nH]cn1)C(=O)N[C@@H](CC(C)C)C(=O)N[C@H](C(N)=O)C(C)C [compound 12] (H-H[Aib]EGTFTSDVSELK([AEEA-AEEA-γGlu-C20 diacid])ELAASQRFLEHLV-NH2) | 0.09 | 7904 | 33473 | 0.02 | 631 | – | – | –
CC(C)C[C@H](NC(=O)[C@H](Cc1ccccc1)NC(=O)[C@H](CCCNC(=N)N)NC(=O)[C@H](CCC(N)=O)NC(=O)[C@H](C)NC(=O)[C@H](C)NC(=O)[C@H](C)NC(=O)[C@H](CCC(=O)O)NC(=O)[C@H](CCC(=O)O)NC(=O)[C@H](CCCCNC(=O)COCCOCCNC(=O)COCCOCCNC(=O)CC[C@H](NC(=O)CCCCCCCCCCCCCCCCCCC(=O)O)C(=O)O)NC(=O)[C@H](CC(C)C)NC(=O)[C@H](CCCNC(=N)N)NC(=O)[C@H](CO)NC(=O)[C@@H](NC(=O)[C@H](CC(=O)O)NC(=O)[C@H](CO)NC(=O)[C@@H](NC(=O)[C@H](Cc1ccccc1)NC(=O)[C@@H](NC(=O)CNC(=O)[C@H](CCC(=O)O)NC(=O)C(C)(C)NC(=O)[C@@H](N)Cc1c[nH]cn1)[C@@H](C)O)[C@@H](C)O)C(C)C)C(=O)N[C@@H](CCC(=O)O)C(=O)N[C@@H](Cc1c[nH]cn1)C(=O)N[C@@H](CC(C)C)C(=O)N[C@H](C(N)=O)C(C)C [compound 60] (H-H[Aib]EGTFTSDVSRLK([AEEA-AEEA-γGlu-C20 diacid])EEAAAQRFLEHLV-NH2) | 0.09 | 11873 | 9419 | 0.0316 | 251 | – | – | –
CC[C@H](C)[C@H](NC(=O)[C@H](Cc1ccccc1)NC(=O)[C@H](CCCNC(=N)N)NC(=O)[C@H](CCC(N)=O)NC(=O)[C@H](CC(C)C)NC(=O)[C@H](C)NC(=O)[C@H](C)NC(=O)CNC(=O)[C@H](CCC(=O)O)NC(=O)[C@H](CC(C)C)NC(=O)[C@H](CC(C)C)NC(=O)CNC(=O)[C@H](CO)NC(=O)[C@@H]1CCCN1C(=O)[C@H](CC(=O)O)NC(=O)[C@H](CO)NC(=O)[C@@H](NC(=O)[C@H](Cc1ccccc1)NC(=O)[C@@H](NC(=O)CNC(=O)[C@H](CCC(=O)O)NC(=O)C(C)(C)NC(=O)[C@@H](N)Cc1c[nH]cn1)[C@@H](C)O)[C@@H](C)O)C(=O)N[C@@H](CCC(N)=O)C(=O)N[C@@H](Cc1c[nH]c2ccccc12)C(=O)N[C@@H](CC(C)C)C(=O)N[C@H](C(N)=O)C(C)C [compound 123] (H-H[Aib]EGTFTSDPSGLLEGAALQRFIQWLV-NH2) | 0.11 | 3764 | – | – | – | 10 | 671 | 6310
CC(C)C[C@H](NC(=O)[C@H](CCC(=O)O)NC(=O)[C@H](CCCCNC(=O)COCCOCCNC(=O)COCCOCCNC(=O)CC[C@H](NC(=O)CCCCCCCCCCCCCCCCCCC(=O)O)C(=O)O)NC(=O)[C@H](CC(C)C)NC(=O)[C@@H](NC(=O)[C@H](CO)NC(=O)[C@@H](NC(=O)[C@H](CC(=O)O)NC(=O)[C@H](CO)NC(=O)[C@@H](NC(=O)[C@H](Cc1ccccc1)NC(=O)[C@@H](NC(=O)CNC(=O)[C@H](CCC(=O)O)NC(=O)C(C)(C)NC(=O)[C@@H](N)Cc1c[nH]cn1)[C@@H](C)O)[C@@H](C)O)C(C)C)C(C)C)C(=O)N[C@@H](C)C(=O)N[C@@H](C)C(=O)N[C@@H](CCC(N)=O)C(=O)N[C@@H](CCC(N)=O)C(=O)N[C@@H](CCCNC(=N)N)C(=O)N[C@@H](Cc1ccccc1)C(=O)N[C@@H](CC(C)C)C(=O)N[C@@H](CCC(=O)O)C(=O)N[C@@H](Cc1c[nH]cn1)C(=O)N[C@@H](CC(C)C)C(=O)N[C@H](C(N)=O)C(C)C [compound 33] (H-H[Aib]EGTFTSDVSVLK([AEEA-AEEA-γGlu-C20 diacid])ELAAQQRFLEHLV-NH2) | 0.08 | 45087 | 5737 | 0.0631 | 316 | – | – | –

Second part, the compound after the results:

Turbidity (pH 7) [1] | Fibril formation [2] | Selectivity (GLP1R) | EC50 (GLP1R; [3]) [nM] | EC50 (SCTR; [4]) [nM] | EC50 (GLP1R; read-out: hGLP1R pEC50 (converted)) [nM] | SCTR EC50/GLP1R EC50 ratio (GLP1R; selectivity for hGLP1R over hSCTR, cAMP accumulation in CHO-K1 cells) | EC50 (SCTR; read-out: hSCTR pEC50 (converted)) [nM] | Compound
0.09 | 14290 | 86896 | 0.02 | 2000 | – | – | – | CC(C)C[C@H](NC(=O)[C@H](Cc1ccccc1)NC(=O)[C@H](CCCNC(=N)N)NC(=O)[C@H](CCC(N)=O)NC(=O)C(C)(C)NC(=O)[C@H](C)NC(=O)[C@H](C)NC(=O)[C@@H](NC(=O)[C@H](CCC(=O)O)NC(=O)[C@H](CCCCNC(=O)COCCOCCNC(=O)COCCOCCNC(=O)CC[C@H](NC(=O)CCCCCCCCCCCCCCCCCCC(=O)O)C(=O)O)NC(=O)[C@H](CC(C)C)NC(=O)[C@H](CCC(=O)O)NC(=O)[C@H](CO)NC(=O)[C@@H](NC(=O)[C@H](CC(=O)O)NC(=O)[C@H](CO)NC(=O)[C@@H](NC(=O)[C@H](Cc1ccccc1)NC(=O)[C@@H](NC(=O)CNC(=O)[C@H](CCC(=O)O)NC(=O)C(C)(C)NC(=O)[C@@H](N)Cc1c[nH]cn1)[C@@H](C)O)[C@@H](C)O)C(C)C)[C@@H](C)O)C(=O)N[C@@H](CCC(=O)O)C(=O)N[C@@H](Cc1c[nH]cn1)C(=O)N[C@@H](CC(C)C)C(=O)N[C@H](C(N)=O)C(C)C [compound 45] (H-H[Aib]EGTFTSDVSELK([AEEA-AEEA-γGlu-C20 diacid])ETAA[Aib]QRFLEHLV-NH2)
0.08 | 4882 | 212618 | 0.0251 | 5010 | – | – | – | CC(C)C[C@H](NC(=O)[C@H](Cc1ccccc1)NC(=O)[C@H](CCCNC(=N)N)NC(=O)[C@H](CCC(N)=O)NC(=O)[C@H](C)NC(=O)[C@H](C)NC(=O)[C@H](C)NC(=O)[C@@H](NC(=O)[C@H](CCC(=O)O)NC(=O)[C@H](CCCCNC(=O)COCCOCCNC(=O)COCCOCCNC(=O)CC[C@H](NC(=O)CCCCCCCCCCCCCCCCCCC(=O)O)C(=O)O)NC(=O)[C@H](CC(C)C)NC(=O)[C@H](CCC(=O)O)NC(=O)[C@H](CO)NC(=O)[C@@H](NC(=O)[C@H](CC(=O)O)NC(=O)[C@H](CO)NC(=O)[C@@H](NC(=O)[C@H](Cc1ccccc1)NC(=O)[C@@H](NC(=O)CNC(=O)[C@H](CCC(=O)O)NC(=O)C(C)(C)NC(=O)[C@@H](N)Cc1c[nH]cn1)[C@@H](C)O)[C@@H](C)O)C(C)C)[C@@H](C)O)C(=O)N[C@@H](CCC(=O)O)C(=O)N[C@@H](Cc1c[nH]cn1)C(=O)N[C@@H](CC(C)C)C(=O)N[C@H](C(N)=O)C(C)C [compound 57] (H-H[Aib]EGTFTSDVSELK([AEEA-AEEA-γGlu-C20 diacid])ETAAAQRFLEHLV-NH2)
